In patent publication US20230064983A1 (priority 2020, published 2023):
Where “and” joins values, the source holds several entries; their conditions need not be identical. Equal entries are not always repeated. Where two headings read alike, the source gives them in different places.

Experiments:
[1] = biological target: Ba/F3-EGFR-WT cells (Homo sapiens, UniProt P00533); assay: Ba/F3 cell survival assay, wild type EGFR; type: cell-based
[2] = biological target: T1, Bub1 (Homo sapiens, UniProt O43683); assay: Bub1 high ATP kinase assay (TR-FRET); type: biochemical; settings: 2 mM ATP, Table 3
T1 construct: catalytic domain of human Bub1 (amino acids 704-1085); His6 (N); made in house; host or cells: insect cells (Hi5)
Description: Bub1 high ATP Kinase Assay
Bub1-inhibitory activity of compounds of the present invention at a high ATP concentration was quantified employing the Bub1 TR-FRET high ATP kinase assay as described in the following paragraphs.
N-terminally His6-tagged recombinant catalytic domain of human Bub1 (amino acids 704-1085), expressed in insect cells (Hi5) and purified by Ni-NTA affinity chromatography and subsequent size exclusion chromatography, was used as enzyme. As substrate for the kinase reaction the biotinylated peptide biotin-Ahx-[…] (C-terminus in amid form) was used which can be purchased e.g. form the company Biosyntan (Berlin, Germany).
Then the kinase reaction was started by the addition of 2 μl of a solution of Bub1 in assay buffer and the resulting mixture was incubated for a reaction time of 60 min at 22° C. The concentration of Bub1 was adjusted depending of the activity of the enzyme lot and was chosen appropriate to have the assay in the linear range, a typical concentration is about 200 ng/ml. The reaction was stopped by the addition of 3 μl of a solution of TR-FRET detection reagents (0.167 μM streptavidine-XL665 [Cisbio Bioassays, Codolet, France] and 1.67 nM anti-phosho-Serine antibody [Merck Millipore, cat. #35-002] and 0.67 nM LANCE EU-W1024 labeled anti-mouse IgG antibody [Perkin-Elmer, product no. AD0077, as an alternative a Terbium-cryptate-labeled anti-mouse IgG antibody from Cisbio Bioassays can be used]) in an aqueous EDTA-solution (83.3 mM EDTA, 0.2% (w/v) bovine serum albumin in 100 mM HEPES pH 7.5).
The resulting mixture was incubated 1 h at 22° C. to allow the formation of complex between the phosphorylated biotinylated peptide and the detection reagents. Subsequently the amount of phosphorylated substrate was evaluated by measurement of the resonance energy transfer from the Eu-chelate to the streptavidine-XL. Therefore, the fluorescence emissions at 620 nm and 665 nm after excitation at 350 nm was measured in a TR-FRET reader, e.g. a Pherastar or Pherastar FS (both from BMG Labtechnologies, Offenburg, Germany) or a Viewlux (Perkin-Elmer). The ratio of the emissions at 665 nm and at 622 nm was taken as the measure for the amount of phosphorylated substrate.

[3] = biological target: Ba/F3-EGFR-D770_N771insSVD cells (Homo sapiens, UniProt P00533, DUP768-770, cells depend on it); assay: Ba/F3 cell survival assay, EGFR D770_N771insSVD; type: cell-based
[4] = biological target: T2, EGFR with insertion SVD between D770 and N771 (mutEGFR D770_N771insSVD) (Homo sapiens, UniProt P00533, DUP768-770); assay: Exon20-Mutant-EGFR(D770_N771insSVD) kinase assay (TR-FRET); type: biochemical; settings: 2 mM ATP, Table 2
T2 construct: amino acids R669 to A1210; made in house; host or cells: Sf9 insect cells (baculovirus)

[5] = Cell Titer-Glo, 48 h, with 10 ng/mL EGF; Table 4; read-out: BA/F3 (wild type) IC50
[6] = Bub1 high ATP (2 mM) IC50, TR-FRET
[7] = Cell Titer-Glo, 48 h, without IL-3; Table 4; read-out: BA/F3 (insSVD) IC50

T2 sequence (P00533 other isoform, or with tags, fused parts or gaps DUP768-770): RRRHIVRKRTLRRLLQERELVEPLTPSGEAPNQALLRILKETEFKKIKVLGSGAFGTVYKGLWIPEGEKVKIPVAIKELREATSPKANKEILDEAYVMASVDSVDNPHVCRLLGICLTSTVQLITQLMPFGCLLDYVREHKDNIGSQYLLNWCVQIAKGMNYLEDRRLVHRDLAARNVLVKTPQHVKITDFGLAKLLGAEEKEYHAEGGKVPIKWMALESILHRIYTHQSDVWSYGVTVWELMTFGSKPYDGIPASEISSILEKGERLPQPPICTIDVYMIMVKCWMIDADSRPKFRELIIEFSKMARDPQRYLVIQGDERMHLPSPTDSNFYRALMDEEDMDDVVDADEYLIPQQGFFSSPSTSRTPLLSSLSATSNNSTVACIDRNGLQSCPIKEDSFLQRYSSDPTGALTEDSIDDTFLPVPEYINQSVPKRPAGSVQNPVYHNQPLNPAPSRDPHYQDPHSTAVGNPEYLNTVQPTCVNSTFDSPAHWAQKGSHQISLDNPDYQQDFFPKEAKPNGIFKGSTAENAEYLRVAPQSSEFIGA
Chain of Ba/F3-EGFR-D770_N771insSVD cells (P00533 with tags, fused parts or gaps DUP768-770): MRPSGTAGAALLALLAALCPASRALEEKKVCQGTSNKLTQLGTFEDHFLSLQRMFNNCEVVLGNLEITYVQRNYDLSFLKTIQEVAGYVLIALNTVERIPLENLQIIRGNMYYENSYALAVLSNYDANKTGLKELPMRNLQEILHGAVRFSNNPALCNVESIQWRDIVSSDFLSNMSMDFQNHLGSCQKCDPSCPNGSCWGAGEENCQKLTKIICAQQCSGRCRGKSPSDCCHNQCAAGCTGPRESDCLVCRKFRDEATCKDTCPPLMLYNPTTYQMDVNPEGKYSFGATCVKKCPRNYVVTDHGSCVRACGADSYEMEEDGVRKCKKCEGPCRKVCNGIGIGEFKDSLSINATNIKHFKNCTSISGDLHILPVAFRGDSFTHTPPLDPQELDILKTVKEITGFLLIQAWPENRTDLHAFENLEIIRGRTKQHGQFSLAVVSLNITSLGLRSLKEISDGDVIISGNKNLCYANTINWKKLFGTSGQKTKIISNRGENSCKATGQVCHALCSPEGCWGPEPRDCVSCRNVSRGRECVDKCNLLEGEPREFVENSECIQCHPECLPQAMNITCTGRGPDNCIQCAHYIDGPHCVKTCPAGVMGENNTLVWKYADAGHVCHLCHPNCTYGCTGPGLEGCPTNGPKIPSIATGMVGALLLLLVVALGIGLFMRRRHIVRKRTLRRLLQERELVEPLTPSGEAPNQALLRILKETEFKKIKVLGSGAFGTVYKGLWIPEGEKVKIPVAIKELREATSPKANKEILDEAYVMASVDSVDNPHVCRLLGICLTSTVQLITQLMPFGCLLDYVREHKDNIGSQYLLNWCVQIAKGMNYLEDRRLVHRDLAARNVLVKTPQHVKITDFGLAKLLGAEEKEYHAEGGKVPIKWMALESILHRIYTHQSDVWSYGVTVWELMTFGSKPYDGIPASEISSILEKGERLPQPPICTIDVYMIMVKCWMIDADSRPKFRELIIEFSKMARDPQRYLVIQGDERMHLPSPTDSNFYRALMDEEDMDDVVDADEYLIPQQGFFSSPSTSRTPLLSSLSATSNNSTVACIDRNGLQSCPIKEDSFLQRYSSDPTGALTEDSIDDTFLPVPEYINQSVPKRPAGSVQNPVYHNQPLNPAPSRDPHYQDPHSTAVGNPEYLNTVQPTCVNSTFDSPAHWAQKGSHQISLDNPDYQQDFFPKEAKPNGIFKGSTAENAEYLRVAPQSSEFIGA
Chain of Ba/F3-EGFR-WT cells (P00533 whole entry, looked up, change not shown): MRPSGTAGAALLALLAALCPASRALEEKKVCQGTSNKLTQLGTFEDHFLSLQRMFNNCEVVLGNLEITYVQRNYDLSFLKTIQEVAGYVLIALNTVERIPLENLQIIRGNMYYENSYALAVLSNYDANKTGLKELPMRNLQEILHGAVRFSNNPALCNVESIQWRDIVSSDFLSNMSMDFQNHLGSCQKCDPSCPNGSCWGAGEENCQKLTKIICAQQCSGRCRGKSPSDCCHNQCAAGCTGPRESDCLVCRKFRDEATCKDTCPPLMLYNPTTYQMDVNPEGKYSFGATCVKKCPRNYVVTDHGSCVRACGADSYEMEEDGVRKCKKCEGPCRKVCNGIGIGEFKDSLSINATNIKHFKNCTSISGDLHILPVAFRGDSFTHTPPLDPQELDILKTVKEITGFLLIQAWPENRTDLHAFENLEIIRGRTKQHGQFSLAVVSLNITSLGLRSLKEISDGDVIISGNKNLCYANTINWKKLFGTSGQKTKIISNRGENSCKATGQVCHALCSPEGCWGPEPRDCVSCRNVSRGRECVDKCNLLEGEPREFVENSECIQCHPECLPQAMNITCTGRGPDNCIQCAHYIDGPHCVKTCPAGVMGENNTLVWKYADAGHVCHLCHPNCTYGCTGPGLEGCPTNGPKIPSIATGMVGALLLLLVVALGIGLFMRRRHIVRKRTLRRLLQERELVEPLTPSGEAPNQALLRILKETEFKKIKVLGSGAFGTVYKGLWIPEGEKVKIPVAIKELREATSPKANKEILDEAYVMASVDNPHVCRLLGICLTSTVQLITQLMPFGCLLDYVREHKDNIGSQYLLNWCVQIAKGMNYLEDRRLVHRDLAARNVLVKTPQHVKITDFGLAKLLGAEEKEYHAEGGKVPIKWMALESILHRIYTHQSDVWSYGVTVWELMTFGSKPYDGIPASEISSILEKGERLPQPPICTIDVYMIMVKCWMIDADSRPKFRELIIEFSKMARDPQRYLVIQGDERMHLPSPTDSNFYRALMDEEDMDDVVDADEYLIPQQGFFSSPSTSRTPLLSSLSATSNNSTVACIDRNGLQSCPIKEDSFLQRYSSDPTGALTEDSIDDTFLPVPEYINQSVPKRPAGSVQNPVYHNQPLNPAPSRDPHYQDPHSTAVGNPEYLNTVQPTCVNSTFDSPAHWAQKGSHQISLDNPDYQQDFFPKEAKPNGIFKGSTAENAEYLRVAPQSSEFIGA
T1 sequence (O43683 704-1085): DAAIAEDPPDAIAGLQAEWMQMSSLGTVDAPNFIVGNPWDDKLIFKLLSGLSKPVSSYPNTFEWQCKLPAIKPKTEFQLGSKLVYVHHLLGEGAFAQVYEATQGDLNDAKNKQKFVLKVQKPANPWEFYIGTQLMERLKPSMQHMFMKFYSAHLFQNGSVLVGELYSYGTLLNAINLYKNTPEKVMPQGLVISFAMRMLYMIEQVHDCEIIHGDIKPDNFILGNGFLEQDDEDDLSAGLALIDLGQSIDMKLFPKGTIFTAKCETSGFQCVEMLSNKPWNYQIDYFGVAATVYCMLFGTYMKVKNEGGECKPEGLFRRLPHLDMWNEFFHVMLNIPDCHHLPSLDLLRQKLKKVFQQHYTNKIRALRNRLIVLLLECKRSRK

COc1c(Cl)cccc1Nc1c(-c2ccncc2OCC2CCCCO2)[nH]c2c1C(=O)NCC2C (stereo not drawn) [Example 44, 3-(3-chloro-2-methoxy-anilino)-7-methyl-2-[3-(tetrahydropyran-2-ylmethoxy)-4-pyridyl]-1,5,6,7-tetrahydropyrrolo[3,2-c]pyridin-4-one]
GI50 [1, 5]: 594 nM | IC50 [2, 6]: 6450 nM | GI50 [3, 7]: 40.5 nM | mutEGFR (D770_N771insSVD) kinase assay IC50 [4]: 0.195 nM

COc1c(Cl)cccc1Nc1c(-c2ccncc2OCC2CCCCO2)[nH]c2c1C(=O)N[C@H](C)C2 (mixture of isomers) [Example 27, (6R)-3-(3-chloro-2-methoxy-anilino)-6-methyl-2-[3-(tetrahydropyran-2-ylmethoxy)-4-pyridyl]-1,5,6,7-tetrahydropyrrolo[3,2-c]pyridin-4-one]
GI50 [1, 5]: 305 nM | IC50 [2, 6]: > 5700 nM | GI50 [3, 7]: 12 nM | mutEGFR (D770_N771insSVD) kinase assay IC50 [4]: 0.0973 nM

COc1c(Cl)cccc1Nc1c(-c2ccncc2OC[C@@H]2COCCN2C)[nH]c2c1C(=O)N[C@H](C)C2 [Example 93, (6R)-3-(3-chloro-2-methoxyanilino)-6-methyl-2-(3-{[(3S)-4-methylmorpholin-3-yl]methoxy}pyridin-4-yl)-1,5,6,7-tetrahydro-4H-pyrrolo[3,2-c]pyridin-4-one]
GI50 [1, 5]: 254 nM | IC50 [2, 6]: 5420 nM | GI50 [3, 7]: 8.67 nM | mutEGFR (D770_N771insSVD) kinase assay IC50 [4]: 0.4 nM

COc1c(Cl)cccc1Nc1c(-c2ccncc2OCC2COC(C)(C)CO2)[nH]c2c1C(=O)NCC2C (single isomer, unassigned) [Example 97, 3-(3-chloro-2-methoxy-anilino)-2-[3-[(5,5-dimethyl-1,4-dioxan-2-yl)methoxy]-4-pyridyl]-7-methyl-1,5,6,7-tetrahydropyrrolo[3,2-c]pyridin-4-one]
GI50 [1, 5]: 1130 nM | IC50 ([2]; read-out: Bub1 high ATP (2 mM) IC50, TR-FRET): > 20000 nM | GI50 [3, 7]: 32.1 nM | mutEGFR (D770_N771insSVD) kinase assay IC50 [4]: 0.796 nM

Cc1c(Cl)cccc1Nc1c(-c2ccncc2OC[C@H]2CN(C)CCO2)[nH]c2c1C(=O)N[C@H](C)C2 [Example 106, (6R)-3-(3-chloro-2-methylanilino)-6-methyl-2-(3-{[(2R)-4-methylmorpholin-2-yl]methoxy}pyridin-4-yl)-1,5,6,7-tetrahydro-4H-pyrrolo[3,2-c]pyridin-4-one]
GI50 [1, 5]: 3020 nM | IC50 [2, 6]: 11600 nM | GI50 [3, 7]: 318 nM | mutEGFR (D770_N771insSVD) kinase assay IC50 [4]: 0.18 nM

COc1c(Cl)cccc1Nc1c(-c2ccncc2OC[C@@H]2CCCO2)[nH]c2c1C(=O)NCC2CCO (single isomer, unassigned) [Example 18]
GI50 [1, 5]: 362 nM | IC50 [2, 6]: 19200 nM and > 20000 nM | GI50 [3, 7]: 26.4 nM | mutEGFR (D770_N771insSVD) kinase assay IC50 [4]: 0.113 nM

COc1c(Cl)cccc1Nc1c(-c2ccncc2OCC(C)(C)OC)[nH]c2c1C(=O)N[C@@H](C)C2 [Example 2, (6S)-3-(3-chloro-2-methoxyanilino)-2-[3-(2-methoxy-2-methylpropoxy)pyridin-4-yl]-6-methyl-1,5,6,7-tetrahydro-4H-pyrrolo[3,2-c]pyridin-4-one]
GI50 [1, 5]: 575 nM | IC50 [2, 6]: 393 nM | GI50 [3, 7]: 64.6 nM | mutEGFR (D770_N771insSVD) kinase assay IC50 [4]: 0.235 nM

COc1c(Cl)cccc1Nc1c(-c2ccncc2OC[C@@H]2CCCO2)[nH]c2c1C(=O)NC(C)C2 (mixture of isomers) [Example 3, 3-(3-chloro-2-methoxyanilino)-6-methyl-2-(3-{[(2S)-oxolan-2-yl]methoxy}pyridin-4-yl)-1,5,6,7-tetrahydro-4H-pyrrolo[3,2-c]pyridin-4-one]
GI50 [1, 5]: 328 nM | IC50 [2, 6]: 5390 nM | GI50 [3, 7]: 28.5 nM | mutEGFR (D770_N771insSVD) kinase assay IC50 [4]: 0.0854 nM

COc1c(Cl)cccc1Nc1c(-c2ccncc2OCC2CCCCN2C)[nH]c2c1C(=O)N[C@H](C)C2 (single isomer, unassigned) [Example 84]
GI50 [1, 5]: 379 nM | IC50 [2, 6]: > 20000 nM | GI50 [3, 7]: 16.1 nM | mutEGFR (D770_N771insSVD) kinase assay IC50 [4]: 0.657 nM

Cc1c(Cl)cccc1Nc1c(-c2ccncc2OCC2COCCO2)[nH]c2c1C(=O)N[C@H](C)C2 (stereo partly drawn) [Example 102, (6R)-3-(3-chloro-2-methylanilino)-2-{3-[(1,4-dioxan-2-yl)methoxy]pyridin-4-yl}-6-methyl-1,5,6,7-tetrahydro-4H-pyrrolo[3,2-c]pyridin-4-one]
GI50 [1, 5]: 869 nM | IC50 [2, 6]: 1030 nM | GI50 [3, 7]: 38.7 nM | mutEGFR (D770_N771insSVD) kinase assay IC50 [4]: 0.121 nM

Cc1c(Cl)cccc1Nc1c(-c2ccncc2OC[C@@H]2CCCO2)[nH]c2c1C(=O)N[C@H](C)C2 [Example 104, (6R)-3-(3-chloro-2-methylanilino)-6-methyl-2-(3-{[(2S)-oxolan-2-yl]methoxy}pyridin-4-yl)-1,5,6,7-tetrahydro-4H-pyrrolo[3,2-c]pyridin-4-one]
GI50 ([1]; read-out: BA/F3 (wild type) IC50; Cell Titer-Glo, 48 h, with 10 ng/mL EGF; Table 4): 983 nM | IC50 [2, 6]: 3630 nM | GI50 ([3]; read-out: BA/F3 (insSVD) IC50; Cell Titer-Glo, 48 h, without IL-3; Table 4): 32.3 nM | mutEGFR (D770_N771insSVD) kinase assay IC50 [4]: 0.162 nM

Cc1c(Cl)cccc1Nc1c(-c2ccncc2OC[C@@H]2COCCO2)[nH]c2c1C(=O)N[C@H](C)C2 [Example 103, (6R)-3-(3-chloro-2-methylanilino)-2-(3-{[(2S)-1,4-dioxan-2-yl]methoxy}pyridin-4-yl)-6-methyl-1,5,6,7-tetrahydro-4H-pyrrolo[3,2-c]pyridin-4-one]
GI50 [1, 5]: 529 nM | IC50 [2, 6]: 1650 nM | GI50 [3, 7]: 32.2 nM | mutEGFR (D770_N771insSVD) kinase assay IC50 [4]: 0.184 nM

COc1c(Cl)cccc1Nc1c(-c2ccncc2OCC2COCCO2)[nH]c2c1C(=O)N[C@@H]1CCC[C@H]21 (single isomer, unassigned) [Example 54]
GI50 [1, 5]: 675 nM | IC50 [2, 6]: 6190 nM | GI50 [3, 7]: 42.4 nM | mutEGFR (D770_N771insSVD) kinase assay IC50 [4]: 0.198 nM

COc1c(Cl)cccc1Nc1c(-c2ccncc2OCC2COCCO2)[nH]c2c1C(=O)NC1(CCC1)C2 (single isomer, unassigned) [Example 124, 3-(3-chloro-2-methoxy-anilino)-2-[3-(1,4-dioxan-2-ylmethoxy)-4-pyridyl]spiro[5,7-dihydro-1H-pyrrolo[3,2-c]pyridine-6,1′-cyclobutane]-4-one]
GI50 [1, 5]: 513 nM | IC50 [2, 6]: 479 nM | GI50 [3, 7]: 26 nM | mutEGFR (D770_N771insSVD) kinase assay IC50 [4]: 0.315 nM

COc1c(Cl)cccc1Nc1c(-c2ccncc2OCC2COC(C)(C)CO2)[nH]c2c1C(=O)NC1(CCC1)C2 (single isomer, unassigned) [Example 131, 3′-(3-chloro-2-methoxyanilino)-2′-{3-[(5,5-dimethyl-1,4-dioxan-2-yl)methoxy]pyridin-4-yl}-1′,7′-dihydrospiro[cyclobutane-1,6′-pyrrolo[3,2-c]pyridin]-4′(5′H)-one]
GI50 [1, 5]: 980 nM | IC50 [2, 6]: 1670 nM | GI50 [3, 7]: 48.4 nM | mutEGFR (D770_N771insSVD) kinase assay IC50 [4]: 0.318 nM

COc1c(Cl)cccc1Nc1c(-c2ccncc2OC[C@@H]2CCCO2)[nH]c2c1C(=O)NC(C(F)(F)F)C2 (single isomer, unassigned) [Example 40]
GI50 [1, 5]: 480 nM | IC50 [2, 6]: 399 nM | GI50 [3, 7]: 64.3 nM | mutEGFR (D770_N771insSVD) kinase assay IC50 [4]: 0.0981 nM and <0.0725 nM

C[C@@H]1Cc2[nH]c(-c3ccncc3OC[C@@H]3CCCO3)c(Nc3cccc(F)c3CC(F)F)c2C(=O)N1 [Example 63, (6R)-3-[2-(2,2-difluoroethyl)-3-fluoroanilino]-6-methyl-2-(3-{[(2S)-oxolan-2-yl]methoxy}pyridin-4-yl)-1,5,6,7-tetrahydro-4H-pyrrolo[3,2-c]pyridin-4-one]
GI50 [1, 5]: 1170 nM | IC50 [2, 6]: 14100 nM | GI50 [3, 7]: 117 nM | mutEGFR (D770_N771insSVD) kinase assay IC50 [4]: 0.211 nM

COc1c(Cl)cccc1Nc1c(-c2ccncc2OC[C@@H]2CCCO2)[nH]c2c1C(=O)N[C@@H](C)C2 (single isomer, unassigned) [Example 4]
GI50 [1, 5]: 883 nM | IC50 [2, 6]: 3010 nM | GI50 [3, 7]: 95.3 nM | mutEGFR (D770_N771insSVD) kinase assay IC50 [4]: 0.113 nM
